Bounds are passed on as bounds.

Test [1] deals with T1, human recombinant beta-2 adrenoreceptors (Homo sapiens, UniProt P07550).
T1 construct: expressed in transfected cells; host or cells: CHO cells
Briefly: Functional agonism of human recombinant beta-2 adrenoreceptors expressed in CHO cells (cAMP HTRF). It counts as cell-based. The conditions noted are these: CHO cells expressing human beta-2 adrenoreceptors, cAMP elevation, 30 min. The procedure: Functional Agonism of Human Recombinant Beta-2 Adrenoreceptors Expressed in Chinese Hamster Oocytes (CHO)
Test compounds were incubated for 30 min with CHO cells expressing the human recombinant beta-2 adrenoreceptors. Agonism of the receptor was measured by the elevation of intracellular cyclic-AMP over control levels detected using a homogeneous time resolved fluorescence (HTRF) format. Compounds were determined to be “full” or “partial” agonists based on the maximum level of cAMP accumulated compared to the control compound isoproterenol which is a full agonist in this assay system. Concentration response curves were generated for test compounds and the EC50 (molar concentration of the agonist which produced 50% of the maximal response for that compound) was determined. These assays were performed using a protocol based on the original description of the assay by Baker, J. G. (2005) Brit. J. Pharmacol.; 144:317-322.
EC50 determinations for the compounds presented above are seen in the third column of Table 1 (Beta 2 EC50).

In test [2] the target is T1, human recombinant beta-2 adrenoreceptors. Briefly: Beta-2 adrenoceptor binding assay ([3H](−)CGP-12177 displacement). The conditions noted are these: CHO cells expressing human beta-2 adrenoreceptors, [3H](−)CGP-12177 0.3 nM, 120 min. On the procedure: Beta-2 Adrenoceptor Binding Assay
Test compounds were incubated for 120 min with Chinese hamster oocyte (CHO) cells expressing the human recombinant beta-2 adrenoreceptors. Binding of test compounds to the beta-2 adrenoreceptors was determined by measuring the displacement of the radiolabeled ligand [^3H](−)CGP-12177 (0.3 nM) from the receptor measured by a scintillation counting. Concentration response curves were generated for test compounds and the IC50 (molar concentration of the compound which produced 50% inhibition for the maximal response for that compound) was determined. These assays were performed using a protocol based on the original description of the assay by Joseph et al., (2004) Naun.-Sch. Arch. Pharm.; 369:525-532.
IC50 determinations for the compounds presented above are seen in the second column of Table 1 (Beta 2 IC50).

For a further test, the target named is T2, Human recombinant PDE4B2 (Homo sapiens, UniProt Q07343).
T2 construct: purchased BPS Bioscience
T2 sequence (Q07343 1-564 isoform Q07343-2): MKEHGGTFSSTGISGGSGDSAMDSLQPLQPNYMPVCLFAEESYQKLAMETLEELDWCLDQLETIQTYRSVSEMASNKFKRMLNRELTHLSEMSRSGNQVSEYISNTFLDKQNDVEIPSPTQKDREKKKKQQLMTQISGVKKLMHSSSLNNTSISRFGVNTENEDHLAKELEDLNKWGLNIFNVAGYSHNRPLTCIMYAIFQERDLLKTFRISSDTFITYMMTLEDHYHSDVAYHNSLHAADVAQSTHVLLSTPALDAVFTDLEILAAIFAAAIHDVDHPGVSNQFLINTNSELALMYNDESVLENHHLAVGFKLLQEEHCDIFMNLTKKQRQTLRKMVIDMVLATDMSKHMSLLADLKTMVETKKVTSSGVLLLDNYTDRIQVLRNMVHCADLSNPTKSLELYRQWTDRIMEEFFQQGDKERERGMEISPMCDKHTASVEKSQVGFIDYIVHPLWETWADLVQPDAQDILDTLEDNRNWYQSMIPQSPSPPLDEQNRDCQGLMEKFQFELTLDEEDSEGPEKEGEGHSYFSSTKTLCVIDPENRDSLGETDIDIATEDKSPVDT
As to the kind of experiment: Inhibition of PDE4B4 enzyme activity (PDE Glo Assay). It counts as biochemical. The conditions noted are these: human recombinant PDE4B2, 50 nM cAMP; read-out: PDE4 IC50. On the procedure:
Biological Examples Inhibition of PDE4B4 Enzyme Activity
The inhibitory activity of test compounds were determined using the PDE Glo Assay (Promega, V1361). The PDE-Glo Reaction Buffer was prepared (1 mL 5× buffer+4 mL water) and 150 nM solution of test compound dissolved in the Reaction Buffer, followed by 1:3 serial dilutions into Reaction Buffer. […] Human recombinant PDE4B2 (BPS Bioscience) was added to test compound in Reaction Buffer at a concentration of 0.12 nM per reaction. The enzyme and test compound were pre-incubated together at rt for 10 min. 50 nM of the enzyme substrate cAMP was then added to initiate the enzyme reaction, with the reaction terminated after one hour. Termination Buffer (1 mL 5× termination buffer+3.9 mL water+100 μL of 100 mM IBMX (ICN Chemicals, in DMSO)), was added to each reaction well to terminate the reaction. Detection Buffer (1 mL 5×PDE-Glo Detection buffer+3.96 mL water+40 μL PKA (supplied in kit)) was added to the cAMP-enzyme-test compound mix and this secondary reaction proceeded for 20 minutes at rt. An equal volume of Kinase Glo Reagent was then added to the reaction mixture and after 10 min luminescence was measured using a luminometer (EnVision, 0.1 sec read for luminescence). Luminescence values were […] related to levels of cAMP in the reaction mixture. Data were plotted as relative light units (RLU) versus test compound concentration and the IC50 determined using GraphPad Prism 5.0, using a nonlinear curve fit in a single-site binding model.
IC50 determinations for the compounds presented above are seen in the first column of Table 1 (PDE4IC50).

Test [3] has as its system LPS-induced TNF-α release from human peripheral blood mononuclear cells (PBMC). As to the kind of experiment: Inhibition of LPS-induced TNF-α release from human PBMC. It counts as cell-based. The conditions noted are these: LPS 0.4 ng/mL, 6 h, presence or absence of ICI-118551 not given. An excerpt:
Inhibition of Lipopolysaccharide (LPS)-Induced Tumour Necrosis Factor Alpha (TNF-α) Release from Human Peripheral Blood Mononuclear Cells (PBMC)
Human whole blood was drawn from donors and cell purification initiated within two hours. Peripheral blood mononuclear cells (PBMC) were purified using a standard Ficoll gradient purification technique and aliquoted at a concentration of 100,000 cells/well in 96 well plates. Beta-2 adrenoreceptor agonists are also anti-inflammatory for some immune cells expressing the receptor and in this assay they can inhibit tumor necrosis factor-alpha (TNF-α) production. Therefore PBMC were pre-incubated for 30 min in the presence of the beta-2 adrenoreceptor antagonist ICI-118551 [3-(isopropylamino)-1-[(7-methyl-4-indanyl)oxy]butan-2-ol] (10 μM) to determine the PDE4 directed activity of test compounds, and in the absence of ICI-118551 for the combined PDE4 and beta-2 receptor directed activity. Test compounds were dissolved in DMSO and diluted in buffer (final DMSO concentration of 0.1% v/v) and were then added to the cell suspensions and pre-incubated for a further 1 h at 37° C. LPS solution was then added (0.4 ng/mL) and the cells incubated for a further 6 h. At the end of the incubation period the cell supernatants were collected and TNF-α was measured using a Procarta Cytokine Assay Kit (Affymetrix, Santa Clara, Calif.) according to the manufacturers' instructions. Data were analyzed using MiraiBio Masterplex QT v4.0 software (MasterPlex Version 1.0.1.18 Copyright 2008, Hitachi Software Engineering Co., Ltd) and used to extrapolate Mean Fluorescence Intensity (MFI) into concentrations of TNF-α and mean values from replicate wells were determined. Inhibition curves were plotted using a nonlinear curve fit employing a single-site binding model to determine the IC50 value for each test compound in the presence or absence of ICI-118551 using GraphPad Prism 5 for Windows, version 5.02 (GraphPad Software, San Diego Calif.).
EC50 determinations for the compounds presented above are seen in the fourth column of Table 1 (PBMC TNF EC50).

T1 sequence (P07550 whole entry): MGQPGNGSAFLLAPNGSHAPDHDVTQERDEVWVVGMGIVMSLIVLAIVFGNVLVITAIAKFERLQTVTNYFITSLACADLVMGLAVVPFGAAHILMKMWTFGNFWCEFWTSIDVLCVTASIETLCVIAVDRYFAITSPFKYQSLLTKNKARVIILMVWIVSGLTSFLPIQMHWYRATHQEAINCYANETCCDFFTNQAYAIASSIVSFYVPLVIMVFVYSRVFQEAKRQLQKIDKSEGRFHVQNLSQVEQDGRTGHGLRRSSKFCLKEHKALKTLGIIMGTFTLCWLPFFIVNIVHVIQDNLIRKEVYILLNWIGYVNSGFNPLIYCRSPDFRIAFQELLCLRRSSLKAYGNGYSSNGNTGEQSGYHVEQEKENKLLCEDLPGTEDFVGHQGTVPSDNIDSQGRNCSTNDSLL

As a reminder, the EC50 is the concentration needed to bring the measured effect to its halfway point. The IC50 is the concentration at which inhibition is half-maximal. Turning to `COc1cccc(Nc2c(C(N)=O)cnc3c(C)cc(S(=O)(=O)c4cccc(C(=O)NCCCCCCNC[C@H](O)c5ccc(O)c(NS(C)(=O)=O)c5)c4)cc23)c1` [Example 43, (R)-6-[[3-[[6-[[2-Hydroxy-2-[4-hydroxy-3-(methylsulfonamido)phenyl]ethyl]amino]hexyl]carbamoyl]phenyl]sulfonyl]-4-[(3-methoxyphenyl)amino]-8-methylquinoline-3-carboxamide], the EC50 in test [1] and in test [3] was less than 100 nM throughout. The IC50 (in test [2]; at Human recombinant PDE4B2) was less than 100 nM throughout.
Regarding `COc1cccc(Nc2c(C(N)=O)cnc3c(C)cc(S(=O)(=O)c4cccc(C(=O)Nc5ccc(C#CCCCNC[C@H](O)c6cc(O)cc7c6OCC(=O)N7)cc5)c4)cc23)c1` [Example 24, (R)-6-((3-((4-(5-((2-hydroxy-2-(6-hydroxy-3-oxo-3,4-dihydro-2H-benzo[b][1,4]oxazin-8-yl)ethyl)amino)pent-1-yn-1-yl)phenyl)carbamoyl)phenyl)sulfonyl)-4-((3-methoxyphenyl)amino)-8-methylquinoline-3-carboxamide], the EC50 was less than 300 nM in test [1] and less than 100 nM in test [3]. Moreover, the IC50 in test [2] was less than 100 nM.
As to `COc1cccc(Nc2c(C(N)=O)cnc3c(C)cc(S(=O)(=O)c4cccc(-c5ccc(CCCNC[C@H](O)c6ccc(O)c7c6OCC(=O)N7)cc5)c4)cc23)c1` [Example 50, (R)-6-((4′-(3-((2-hydroxy-2-(5-hydroxy-3-oxo-3,4-dihydro-2H-benzo[b][1,4]oxazin-8-yl)ethyl)amino)propyl)-[1,1′-biphenyl]-3-yl)sulfonyl)-4-((3-methoxyphenyl)amino)-8-methylquinoline-3-carboxamide], the IC50 in test [2] is less than 100 nM. In test [3], this molecule showed an EC50 of less than 100 nM.
Consider `COc1cccc(Nc2c(C(N)=O)cnc3c(C)cc(S(=O)(=O)c4cccc(C(=O)Nc5ccc(C#CCCCNC[C@H](O)c6ccc(O)c7c6OCC(=O)N7)cc5C)c4)cc23)c1` [Example 35, (R)-6-((3-((4-(5-((2-hydroxy-2-(5-hydroxy-3-oxo-3,4-dihydro-2H-benzo[b][1,4]oxazin-8-yl)ethyl)amino)pent-1-yn-1-yl)-2-methylphenyl)carbamoyl)phenyl)sulfonyl)-4-((3-methoxyphenyl)amino)-8-methylquinoline-3-carboxamide], for which the EC50 in test [1] and in test [3] was less than 100 nM throughout. In addition, the IC50 in test [2] is less than 100 nM.
Consider `COc1cccc(Nc2c(C(N)=O)cnc3c(C)cc(S(=O)(=O)c4cccc(C(=O)N(C)c5ccc(CCCCOCCCCCCNC[C@H](O)c6ccc(O)c7[nH]c(=O)ccc67)cc5)c4)cc23)c1` [Example 40, (R)-6-((3-((4-(4-((6-((2-hydroxy-2-(8-hydroxy-2-oxo-1,2-dihydroquinolin-5-yl)ethyl)amino)hexyl)oxy)butyl)phenyl)(methyl)carbamoyl)phenyl)sulfonyl)-4-((3-methoxyphenyl)amino)-8-methylquinoline-3-carboxamide], for which the EC50 in test [1] was less than 100 nM. Further, the IC50 in test [2] is less than 100 nM.
As for `COc1cccc(Nc2c(C(N)=O)cnc3c(C)cc(S(=O)(=O)c4ccc(-c5ccc(CCCNC[C@H](O)c6ccc(O)c7c6OCC(=O)N7)cc5)cc4)cc23)c1` [Example 49, (R)-6-((4′-(3-((2-hydroxy-2-(5-hydroxy-3-oxo-3,4-dihydro-2H-benzo[b][1,4]oxazin-8-yl)ethyl)amino)propyl)-[1,1′-biphenyl]-4-yl)sulfonyl)-4-((3-methoxyphenyl)amino)-8-methylquinoline-3-carboxamide], the IC50 in test [2] was less than 100 nM. Moreover, the EC50 in test [3] was less than 100 nM.
In the case of `COc1cccc(Nc2c(C(N)=O)cnc3c(C)cc(S(=O)(=O)c4cccc(C(=O)Nc5ccc(-c6ccc(CCCCNC[C@H](O)c7ccc(O)c8c7OCC(=O)N8)cc6)cc5)c4)cc23)c1` [Example 21, (R)-6-((3-((4′-(4-((2-hydroxy-2-(5-hydroxy-3-oxo-3,4-dihydro-2H-benzo[b][1,4]oxazin-8-yl)ethyl)amino)butyl)-(1,1′-biphenyl]-4-yl)carbamoyl)phenyl)sulfonyl)-4-((3-methoxyphenyl)amino)-8-methylquinoline-3-carboxamide], the IC50 in test [2] was less than 100 nM. For the same molecule, the 50% effective concentration (EC50) in test [3] was less than 100 nM.
On to `COc1cccc(Nc2c(C(N)=O)cnc3c(C)cc(S(=O)(=O)c4ccc(-c5ccc(CCCCCNC[C@H](O)c6ccc(O)c7c6OCC(=O)N7)cc5)cc4)cc23)c1` [Example 51, (R)-6-((4′-(5-((2-hydroxy-2-(5-hydroxy-3-oxo-3,4-dihydro-2H-benzo[b][1,4]oxazin-8-yl)ethyl)amino)pentyl)-[1,1′-biphenyl]-4-yl)sulfonyl)-4-((3-methoxyphenyl)amino)-8-methylquinoline-3-carboxamide], for which the 50% effective concentration (EC50) in test [1] and in test [3] was less than 100 nM in each case. In test [2], the IC50 is less than 100 nM.
Consider `COc1cccc(Nc2c(C(N)=O)cnc3c(C)cc(S(=O)(=O)c4cccc(C(=O)N5CCC(NC[C@H](O)c6ccc(O)c(CO)c6)CC5)c4)cc23)c1` [Example 42, (R)-6-[[3-[[4-[[2-Hydroxy-2-[4-hydroxy-3-(hydroxymethyl)phenyl]ethyl]amino]piperidine-1-yl]carbonyl]phenyl]sulfonyl]-4-[(3-methoxyphenyl)amino]-8-methylquinoline-3-carboxamide], for which the IC50 in test [2] is less than 300 nM; on Human recombinant PDE4B2, less than 100 nM. The molecule also registered an EC50 in test [3] of less than 100 nM.
`COc1cccc(Nc2c(C(N)=O)cnc3c(C)cc(S(=O)(=O)c4cccc(C(=O)Nc5cccc(-c6ccc(CCCCNC[C@H](O)c7ccc(O)c8c7OCC(=O)N8)cc6)c5)c4)cc23)c1` [Example 22]: the EC50 in test [1] and in test [3] was less than 100 nM throughout. The IC50 in test [2] is less than 100 nM.
Consider `COc1cccc(Nc2c(C(N)=O)cnc3c(C)cc(S(=O)(=O)c4cccc(C(=O)Nc5ccc(C#CCCCNC[C@H](O)c6ccc(O)c7c6OCC(=O)N7)c(C)c5)c4)cc23)c1` [Example 36, (R)-6-((3-((4-(5-((2-hydroxy-2-(5-hydroxy-3-oxo-3,4-dihydro-2H-benzo[b][1,4]oxazin-8-yl)ethyl)amino)pent-1-yn-1-yl)-3-methylphenyl)carbamoyl)phenyl)sulfonyl)-4-((3-methoxyphenyl)amino)-8-methylquinoline-3-carboxamide], for which, in test [2], the IC50 was less than 100 nM. This molecule also registered an EC50 in test [3] of less than 100 nM.

These data come from patent publication US8394829B2, “Bi-functional quinoline analogs” (Gilead Sciences, Inc., priority 2010, dated 2013).
